Experimental data as given in publication PMC7025694 (Acta Orthopaedica, 2018).

Type: in vivo, pig

CN[C@H](CC(C)C)C(=O)N[C@H]1C(=O)N[C@@H](CC(N)=O)C(=O)N[C@H]2C(=O)N[C@H]3C(=O)N[C@H](C(=O)N[C@H](C(=O)O)c4cc(O)cc(O)c4-c4cc3ccc4O)[C@H](O)c3ccc(c(Cl)c3)Oc3cc2cc(c3O[C@@H]2O[C@H](CO)[C@@H](O)[C@H](O)[C@H]2O[C@H]2C[C@](C)(N)[C@H](O)[C@H](C)O2)Oc2ccc(cc2Cl)[C@H]1O [vancomycin]
time to a mean MIC of 8 µg/mL (intervertebral disc, pig, 1,000 mg i.v. over 100 min, sampling 8 h): could not be reached | Tmax, time to Cmax (plasma (unbound), pig, 1,000 mg i.v. single dose over 100 min, mean (95% CI)): 75 (61–89) min
